Test results published in PubChem BioAssay AID1902 (Broad Institute, 2009).
Calls of active or inactive are those of the source.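 The calls were made as follows: active = EC50 no more than a set limit of log units above the highest dose; inactive = the rest.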

Each molecule was assayed against S. pyogenes SKKanGAS, kanamycin survival, BacTiterGlo, 6 h (assay: S. pyogenes SKKanGAS kanamycin growth inhibitors – SKKanGAS strain, luminescence, dose confirmation, streptokinase promoter inhibitor project, dose response (AID 1902);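 also: lower survival reflects blocked streptokinase promoter driving kanamycin resistance gene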).

Structure (SMILES)	EC50
CC(C)CN(Cc1cc(=O)oc2cc3c(cc12)CCCC3)CC(C)C	7.82 µM
COc1ccc(C(=O)NC2CCCCCC2)cc1S(=O)(=O)N1CCOCC1	> 15 µM (inactive)
CCOc1ccc(/C=N/NC(=O)Cc2csc(Nc3cccc(C(F)(F)F)c3)n2)cc1	6.35 µM
C/C(=N\NC(=O)c1nnn(-c2nonc2N)c1CN(C)c1ccccc1)c1ccccc1O	2.75 µM
CC(C)c1ccc(OCC(=O)NNC(=S)NC(=O)c2ccco2)c(Br)c1	< 0.06 µM
CN1CCN(C2=Cc3cc(Cl)ccc3Sc3cc(F)ccc32)CC1	5.16 µM
O=C(NC(=S)NNC(=O)c1ccco1)c1ccc(Br)cc1	0.772 µM
CC(C)n1nc(C(=O)Nc2nnc(SCc3c(Cl)cccc3Cl)s2)c2ccccc2c1=O	1.68 µM
O=C(O)c1cnc(-c2ccccc2)nc1Sc1ccc(Cl)cc1Cl	9.74 µM
CC(C)(O)c1[nH]c2cc(F)ccc2c1C(C)(C)O	1.67 µM
CC(C)Cn1c(O)c(N=NC(=O)c2cccc(S(=O)(=O)N3CCCCC3)c2)c2ccccc21	6.04 µM
Cc1nc(-c2ccc(S(=O)(=O)Nc3ccc(Br)cc3Cl)s2)cs1	5.14 µM
CCCc1cc2c(-c3ccccc3)cc(=O)oc2cc1OCc1ccc(C(=O)O)o1	8.9 µM
Nc1nc(CN2CCN(c3ccc(F)cc3)CC2)nc(N2CCCc3ccccc32)n1	0.178 µM
COc1ccc(C(=O)NCC(=O)OCCCOC(=O)CNC(=O)c2ccc(OC)c(OC)c2)cc1OC	> 15 µM (inactive)
COc1cccc(/C=N/NC(=O)c2cc3c(OC)ccc(OC)c3[nH]2)c1O	2 µM
O=C(c1nc2ccc(Cl)cn2c1CN1CCC(CO)CC1)N1CCc2ccccc2C1	> 15 µM (inactive)
Cc1[nH]nc(Nc2ccc(C(C)C)cc2)c1[N+](=O)[O-]	13.8 µM
CCN(c1ccccc1)S(=O)(=O)c1ccc(C(=O)Nc2nnc(-c3ccco3)o2)cc1	2.04 µM
O=C(NC(NC(=S)Nc1c(Cl)cccc1Cl)C(Cl)(Cl)Cl)OCc1ccccc1 (stereo not drawn)	2.5 µM
O=C(CNc1ccc(F)cc1)N/N=C/c1c(O)ccc2ccccc12	1.12 µM
Cc1[nH]n(-c2ccccc2)c(=O)c1/C=N/NC(=O)c1cccc(F)c1	3.44 µM
COc1cc([N+](=O)[O-])cc(/C=N/NC(=O)c2cccnc2)c1O	2.64 µM
COc1ccc(S(=O)(=O)N2CCN=C2SCc2cccc(C)c2)cc1	> 15 µM (inactive)
CC(=O)Nc1nnc(S(=O)(=O)N2CCN(c3ccc(Cl)cc3[N+](=O)[O-])CC2)s1	> 15 µM (inactive)
Cc1c(C(=O)N2CCC(Cc3ccccc3)CC2)sc2ncnc(N3CCC(C)CC3)c12	6.31 µM
COc1ccc(C2CC(c3ccccc3)=NN2C(=O)c2cccs2)cc1 (stereo not drawn)	7.84 µM

Structure (SMILES)	EC50
COc1ccc(/C=C/c2ccc3c(Br)ccc(O)c3n2)cc1	0.785 µM
O=C1C=C(Nc2ccccc2)c2ccccc2C1=O	2.44 µM
N#CCC(=O)Nc1ccc(C(=O)OC(C(=O)Nc2cc(C(F)(F)F)ccc2Cl)c2ccccc2)cc1 (stereo not drawn)	3.64 µM
Cc1ccc(NC2=NCC(Cc3ccc(Br)cc3)S2)cc1 (stereo not drawn)	0.557 µM
Cc1cccc(N2CCN(C(=O)C34CC5CC(CC(C5)C3)C4)CC2)c1C	5.65 µM
CCCc1sc(N/N=C/c2ccccn2)nc1-c1ccc(F)cc1	9.33 µM
Cc1cc(C(C)(C)C)cc(C)c1COC(=O)c1cccnc1	3.25 µM
O=C(Nc1ccc(OCC(F)(F)C(F)F)c(C(F)(F)F)c1)c1ccc(Cl)cc1	3.62 µM
CCCCCn1c(=O)c(C(=O)Nc2cnccn2)c(O)c2ccccc21	3.18 µM
O=C(Nc1cccc(-c2ccc(N3CCOCC3)nn2)c1)c1ccccc1Cl	> 15 µM (inactive)
COc1ccc(C(=O)CSc2nnc(CNC(=O)c3ccc(S(=O)(=O)N(C)C)cc3)o2)cc1	> 15 µM (inactive)
Cc1c(N/N=C(\C#N)C(=O)c2ccccc2)c(=O)n(-c2ccccc2)n1C	1.44 µM
COC(=O)c1ccc(N2CCC(c3cc(-c4ccc(OC)cc4)n[nH]3)CC2)c([N+](=O)[O-])c1	2.15 µM
O=c1cc(-c2ccccc2)[nH]n1-c1nc2ccccc2s1	2.72 µM
CC(C)N1CCc2c(sc(NC(=O)c3ccc([N+](=O)[O-])o3)c2C(N)=O)C1	3.5 µM
O=C(N/N=C/c1cc2c3c(c1O)CCCN3CCC2)c1ccccc1O	7.14 µM
c1ccc(Oc2nc(-c3ccccn3)nc3ccccc23)cc1	9.41 µM
COc1ccc(C(=O)O)cc1NC(=S)NC(=O)c1ccc(-c2ccc(Cl)cc2)o1	2.3 µM
O=C(NC1=NCCS1)c1cc(-c2ccccc2)nn1-c1ccccc1	6.06 µM
Cc1cc(C)c(OCC(=O)N2CCN(c3ncc(C(F)(F)F)cc3Cl)CC2)c(C)c1	6.88 µM
Cc1cccc(NC(=O)c2sc(Cl)nc2-c2ccccc2)c1	11.2 µM
Oc1ccccc1N=Nc1nc(-c2ccccc2)c(-c2ccccc2)[nH]1	0.303 µM
O=C(Nc1ccc(Cl)c(Cl)c1)Nc1ccon1	14.5 µM
Cc1ccc(NS(=O)(=O)c2ccc(C3CCCCC3)cc2)cc1	4.32 µM
O=C(NNC(=S)NC(=O)c1ccco1)c1ccc(NC(=O)c2ccccc2)cc1	1.21 µM
CCOc1cccc(/C=N/NC(=O)c2ccc3c(c2)OCCO3)c1O	1.27 µM
